Experimental data reported in patent US8658798B2, “Herbicide triazolylpyridine ketones” (Bayer Cropscience AG, priority 2007, dated 2014).

Tests used:
Assay type in all cases: in vivo
[1] = system: livid amaranth (Amaranthus); experiment: Selective herbicide effect test to field crop (soil spray treatment before germination), Test example 3, herbicide effect; conditions: dosage 320 g/ha, 2 weeks after treatment, 100% = complete death
Procedure: (§1) • Preparing preparation of active compound • Carrier: DMF 5 parts by weight • Emulsifier: benzyloxy polyglycol ether 1 part by weight
(§2) A preparation of active compound is obtained as an emulsion by mixing 1 part by weight of active compound with the above amounts of carrier and emulsifier. A prescribed amount of preparation is diluted with water.
(§3) In a greenhouse, seeds of field crops [wheat (Triticum), corn (Zea), soy bean (Glycine)] and weeds [barnyardgrass (Echinochloa), southern crabgrass (Digitaria), livid amaranth (Amaranthus), fat hen (Chenopodium)] were sown on the surface layer of 16 cm^2 pots filled with field soil (sandy loam), and covered with soil. After 1 day, the prescribed diluted solutions of preparations of respective active compounds, which were prepared according to Test example 1, were sprayed to the soil. After 2 weeks from the treatment, phytotoxicity to crops and herbicide effect of respective compounds were examined. In the evaluation of herbicide effect and phytotoxicity, complete death was evaluated as 100%, and the case of no herbicide effect or no phytotoxicity was evaluated as 0%. When the herbicide effect is 80% or more, such active compounds are evaluated to have practical utility as a herbicide. When phytotoxicity is 20% or less, such active compounds are evaluated to have excellent safety as a herbicide.

[2] = system: barnyardgrass (Echinochloa); experiment: as above; conditions: dosage 320 g/ha, 2 weeks after treatment, 100% = complete death
Procedure: as §1, §2, §3

[3] = system: fat hen (Chenopodium); experiment: as above; conditions: dosage 320 g/ha, 2 weeks after treatment, 100% = complete death
Procedure: as §1, §2, §3

[4] = system: southern crabgrass (Digitaria); experiment: as above; conditions: dosage 320 g/ha, 2 weeks after treatment, 100% = complete death
Procedure: as §1, §2, §3

[5] = system: green bristle grass (Setaria); experiment: Herbicide effect test against field weed (soil spray treatment before germination), Test example 1; conditions: dosage 500 g ai/ha, 2 weeks after treatment, 100% = complete death, 0% = no effect
Procedure: as §1, §2
(§4) In a greenhouse, seeds of field weeds [livid amaranth (Amaranthus), green bristle grass (Setaria)] were sown on the surface layer of 16 cm^2 pots filled with field soil (sandy loam) , and covered with soil. Here, one kind of grass was sown for one pot. Immediately after sowing, the prescribed diluted solutions which were prepared according to the above preparation method of the preparation of respective active compounds were sprayed to soil. After 2 weeks from the treatment, the herbicide effect of each of the compounds was examined. In the evaluation of herbicide effect, complete death was evaluated as 100%, and the case of no herbicide effect was evaluated as 0%. When the herbicide effect is 80% or more, such active compounds are evaluated to have practical utility as a herbicide.

[6] = system: livid amaranth (Amaranthus); experiment: as above; conditions: dosage 500 g ai/ha, 2 weeks after treatment, 100% = complete death, 0% = no effect
Procedure: as §1, §2, §4

[7] = system: wheat (Triticum); experiment: Selective herbicide effect test to field crop (soil spray treatment before germination), Test example 3, phytotoxicity; conditions: dosage 320 g/ha, 2 weeks after treatment, 100% = complete death, 0% = no phytotoxicity
Procedure: as §1, §2, §3

[8] = system: corn (Zea); experiment: as above; conditions: dosage 320 g/ha, 2 weeks after treatment, 100% = complete death, 0% = no phytotoxicity
Procedure: as §1, §2, §3

[9] = system: soy bean (Glycine); experiment: as above; conditions: dosage 320 g/ha, 2 weeks after treatment, 100% = complete death, 0% = no phytotoxicity
Procedure: as §1, §2, §3

[10] = system: soy bean; experiment: Selective herbicide effect test to field crop (foliage spray treatment after germination), Test example 4, phytotoxicity; conditions: 320 g/ha, 14 days after spraying, 100% = complete death, 0% = no phytotoxicity
Procedure: as §1, §2, §3
(§5) In a greenhouse, respective seeds of weeds (barnyardgrass, southern crabgrass, fat hen, and livid amaranth) and crops (wheat, corn, and soy bean) were sown on the surface layer of pots filled with field soil, and covered with soil. After one day and 10 days (average 2nd leaf stage for weeds) from the sowing and covering the seeds with soil, the prescribed diluted solutions of preparations of respective active compounds, which were prepared according to Test example 1, were uniformly sprayed onto the soil surfaces of respective test pots and the foliage parts of the plant bodies.
(§6) After 14 days from the spraying, the degree of herbicide effect was examined. Evaluation of herbicide effect and phytotoxicity were carried out similarly to Test example 3.

[11] = system: wheat; experiment: as above; conditions: 320 g/ha, 14 days after spraying, 100% = complete death, 0% = no phytotoxicity
Procedure: as §1, §2, §3, §5, §6

[12] = system: corn; experiment: as above; conditions: 320 g/ha, 14 days after spraying, 100% = complete death, 0% = no phytotoxicity
Procedure: as §1, §2, §3, §5, §6

[13] = system: livid amaranth; experiment: Selective herbicide effect test to field crop (foliage spray treatment after germination), Test example 4, herbicide effect; conditions: 320 g/ha, 14 days after spraying, 100% = complete death, 0% = no effect
Procedure: as §1, §2, §3, §5, §6

[14] = system: southern crabgrass; experiment: as above; conditions: 320 g/ha, 14 days after spraying, 100% = complete death, 0% = no effect
Procedure: as §1, §2, §3, §5, §6

[15] = system: barnyardgrass; experiment: as above; conditions: 320 g/ha, 14 days after spraying, 100% = complete death, 0% = no effect
Procedure: as §1, §2, §3, §5, §6

[16] = system: fat hen; experiment: as above; conditions: 320 g/ha, 14 days after spraying, 100% = complete death, 0% = no effect
Procedure: as §1, §2, §3, §5, §6

[17] = system: Green bristle grass; experiment: Herbicide effect test against field weed (foliage spray treatment after germination), Test example 2; conditions: foliage spray treatment after germination (2nd-3rd leaf stage); dosage 500 g ai/ha; 2 weeks after treatment; 100% = complete death
Procedure: as §1, §2, §4
In a greenhouse, to 16 cm^2 pots filled with field soil (sandy loam), seedling plants (2nd-3rd leaf stage) of a field weed (Green bristle grass) were transplanted. After 1 day, the prescribed diluted solutions of preparations of respective active compounds, which were prepared according to the above Test example 1, were sprayed from the upside of the plant body. After 2 weeks from the treatment, the herbicide effect of each of the compounds was examined. Evaluation of herbicidal effect was carried out similarly to Test example 1.

| Structure (SMILES) | Herbicide effect, Livid amaranth [1] [%] | herbicide effect, Barnyardgrass [2] [%] | herbicide effect, Fat hen [3] [%] | herbicide effect, Southern crabgrass [4] [%] | Herbicide effect, Green bristle grass [5] [%] | Herbicide effect, Livid amaranth [6] [%] | phytotoxicity, Wheat [7] [%] | phytotoxicity, Corn [8] [%] | phytotoxicity, Soy bean [9] [%] | phytotoxicity, Soy bean [10] [%] | phytotoxicity, Wheat [11] [%] | phytotoxicity, Corn [12] [%] | Herbicide effect, Livid amaranth [13] [%] | herbicide effect, Southern crabgrass [14] [%] | herbicide effect, Barnyardgrass [15] [%] | herbicide effect, Fat hen [16] [%] | Herbicide effect, Green bristle grass [17] [%] |
| --- | --- | --- | --- | --- | --- | --- | --- | --- | --- | --- | --- | --- | --- | --- | --- | --- | --- |
| Cc1nc(-n2cncn2)ccc1C(=O)C1C(=O)CCCC1=O [1-1, 2-{[2-methyl-6-(1H-1,2,4-triazol-1-yl)pyridin-3-yl]carbonyl}cyclohexan-1,3-dione] | 80 | 100 | 100 | 100 | 100 | 100 | – | – | – | – | – | – | – | – | – | – | – |
| O=C1CCCC(O)=C1C(=O)c1ccc(-n2cncn2)nc1COCC(F)(F)F [1-28] | 90 | 100 | 100 | 100 | – | – | 0 | 5 | 10 | – | – | – | – | – | – | – | – |
| CSCc1nc(-n2cncn2)ccc1C(=O)C1=C(O)CCCC1=O [1-36] | – | – | – | – | – | – | – | – | – | 50 | 0 | 10 | 80 | 100 | 100 | 90 | 100 |
| CS(=O)(=O)Cc1nc(-n2cncn2)ccc1C(=O)C1=C(O)CCCC1=O [1-56] | – | – | – | – | – | – | – | – | – | 50 | 0 | 50 | 80 | 100 | 100 | 90 | – |
| COCCOCc1nc(-n2cncn2)ccc1C(=O)C1=C(O)CCCC1=O [1-66] | – | – | – | – | – | – | – | – | – | 50 | 10 | 50 | 100 | 100 | 100 | 100 | 90 |
